{"source": "ChEMBL document CHEMBL4765385", "about": "“Synthesis and biological evaluation of β-lapachone-monastrol hybrids as potential anticancer agents” (Eur J Med Chem, 2020)", "key": {"NCI-H596": {"tested_on": "NCI-H596", "test": "Antiproliferative activity against human NCI-H596 cells measured after 48 hrs by MTT assay", "format": "functional, cell-based", "details": "NCI-H596, 48 h"}, "A549 [1]": {"tested_on": "A549", "test": "Antiproliferative activity against human A549 cells measured after 48 hrs in presence of NQO1 inhibitor dicoumarol by MTT assay", "format": "functional, cell-based", "details": "A549, 48 h"}, "L02": {"tested_on": "L02", "test": "Cytotoxicity against human L02 cells measured after 48 hrs by MTT assay", "format": "cell-based", "details": "L02, 48 h"}, "A549 [2]": {"tested_on": "A549", "test": "cells", "details": "Homo sapiens, A549, 48 h"}, "HepG2": {"tested_on": "HepG2", "test": "Antiproliferative activity against human HepG2 cells measured after 48 hrs by MTT assay", "details": "HepG2, 48 h"}, "[3]": {"molecular_target": "NAD(P)H dehydrogenase [quinone] 1 (Homo sapiens, UniProt P15559)", "test": "Substrate activity at recombinant human C-terminal His-tagged NQO1 (1 to 274 residues) expressed in Escherichia coli assessed as metabolic rate by measuring NADPH oxidation per micromol protein at 10 mmol/L measured at 5 secs interval for 1 min by UV-Visible Spectrophotometric method", "format": "ADME"}, "in vitro": {"test": "in vitro", "details": "human, L02 cells and A549 cells"}}, "data": [{"smiles": "COc1cccc2c1C(=O)c1c(O)c3c(c(O)c1C2=O)C[C@@](O)(C(=O)CO)C[C@@H]3O[C@H]1C[C@H](N)[C@H](O)[C@H](C)O1", "note": "[DOXORUBICIN]", "values": [{"measurement": "IC50", "setting": "NCI-H596", "value": 1080, "unit": "nM"}, {"measurement": "IC50", "setting": "A549 [1]", "value": 1200, "unit": "nM"}, {"measurement": "IC50", "setting": "L02", "value": 2180, "unit": "nM"}, {"measurement": "IC50", "setting": "A549 [2]", "value": 1320, "unit": "nM"}]}, {"smiles": "O=C1C(=O)c2ccc(Cl)cc2C2=C1C(c1cccc(O)c1)NC(=S)N2", "note": "(centres undefined)", "values": [{"measurement": "IC50", "setting": "HepG2", "value": 1380, "unit": "nM"}, {"measurement": "IC50", "setting": "NCI-H596", "value": 1560, "unit": "nM"}, {"measurement": "IC50", "setting": "A549 [1]", "value": 1260, "unit": "nM"}, {"measurement": "IC50", "setting": "L02", "value": 1680, "unit": "nM"}, {"measurement": "Drug metabolism", "setting": "[3]", "value": "2398 micromol/min/micromol protein"}, {"measurement": "IC50", "setting": "A549 [2]", "value": 950, "unit": "nM"}, {"measurement": "selectivity ratio", "setting": "in vitro", "value": 1.77}]}, {"smiles": "COc1cc2c(cc1OC)C1=C(C(=O)C2=O)C(c2cccc(O)c2)NC(=S)N1", "note": "(centres undefined)", "values": [{"measurement": "IC50", "setting": "HepG2", "value": 1530, "unit": "nM"}, {"measurement": "IC50", "setting": "NCI-H596", "value": 1760, "unit": "nM"}, {"measurement": "IC50", "setting": "A549 [1]", "value": 1490, "unit": "nM"}, {"measurement": "IC50", "setting": "L02", "value": 1710, "unit": "nM"}, {"measurement": "Drug metabolism", "setting": "[3]", "value": "614 micromol/min/micromol protein"}, {"measurement": "IC50", "setting": "A549 [2]", "value": 1770, "unit": "nM"}, {"measurement": "selectivity ratio", "setting": "in vitro", "value": 0.97}]}, {"smiles": "O=C1C(=O)c2ccccc2C2=C1C(c1ccc(Cl)c(O)c1)NC(=S)N2", "note": "(centres undefined)", "values": [{"measurement": "IC50", "setting": "HepG2", "value": 1580, "unit": "nM"}, {"measurement": "IC50", "setting": "NCI-H596", "value": 1810, "unit": "nM"}, {"measurement": "IC50", "setting": "A549 [1]", "value": 1410, "unit": "nM"}, {"measurement": "IC50", "setting": "L02", "value": 1580, "unit": "nM"}, {"measurement": "Drug metabolism", "setting": "[3]", "value": "734 micromol/min/micromol protein"}, {"measurement": "IC50", "setting": "A549 [2]", "value": 640, "unit": "nM"}, {"measurement": "selectivity ratio", "setting": "in vitro", "value": 2.47}]}, {"smiles": "O=C1C(=O)c2ccccc2C2=C1C(c1cc(O)ccc1F)NC(=S)N2", "note": "(centres undefined)", "values": [{"measurement": "IC50", "setting": "HepG2", "value": 1190, "unit": "nM"}, {"measurement": "IC50", "setting": "NCI-H596", "value": 7690, "unit": "nM"}, {"measurement": "IC50", "setting": "A549 [1]", "value": 1510, "unit": "nM"}, {"measurement": "IC50", "setting": "L02", "value": 1560, "unit": "nM"}, {"measurement": "Drug metabolism", "setting": "[3]", "value": "528 micromol/min/micromol protein"}, {"measurement": "IC50", "setting": "A549 [2]", "value": 980, "unit": "nM"}, {"measurement": "selectivity ratio", "setting": "in vitro", "value": 1.59}]}, {"smiles": "O=C1C(=O)c2ccccc2C2=C1C(c1cc(O)cc(Br)c1)NC(=S)N2", "note": "(centres undefined)", "values": [{"measurement": "IC50", "setting": "HepG2", "value": 3200, "unit": "nM"}, {"measurement": "IC50", "setting": "NCI-H596", "value": 7600, "unit": "nM"}, {"measurement": "IC50", "setting": "A549 [1]", "value": 3000, "unit": "nM"}, {"measurement": "IC50", "setting": "L02", "value": 3050, "unit": "nM"}, {"measurement": "Drug metabolism", "setting": "[3]", "value": "852 micromol/min/micromol protein"}, {"measurement": "IC50", "setting": "A549 [2]", "value": 2420, "unit": "nM"}, {"measurement": "selectivity ratio", "setting": "in vitro", "value": 1.26}]}, {"smiles": "O=C1C(=O)c2cccc(Br)c2C2=C1C(c1cccc(O)c1)NC(=S)N2", "note": "(centres undefined)", "values": [{"measurement": "IC50", "setting": "HepG2", "value": 2890, "unit": "nM"}, {"measurement": "IC50", "setting": "NCI-H596", "value": 1980, "unit": "nM"}, {"measurement": "IC50", "setting": "A549 [1]", "value": 2020, "unit": "nM"}, {"measurement": "IC50", "setting": "L02", "value": 1660, "unit": "nM"}, {"measurement": "Drug metabolism", "setting": "[3]", "value": "2012 micromol/min/micromol protein"}, {"measurement": "IC50", "setting": "A549 [2]", "value": 1940, "unit": "nM"}, {"measurement": "selectivity ratio", "setting": "in vitro", "value": 0.86}]}, {"smiles": "O=C1C(=O)c2cc(F)ccc2C2=C1C(c1cccc(O)c1)NC(=S)N2", "note": "(centres undefined)", "values": [{"measurement": "IC50", "setting": "HepG2", "value": 1340, "unit": "nM"}, {"measurement": "IC50", "setting": "NCI-H596", "value": 1580, "unit": "nM"}, {"measurement": "IC50", "setting": "A549 [1]", "value": 1590, "unit": "nM"}, {"measurement": "IC50", "setting": "L02", "value": 1490, "unit": "nM"}, {"measurement": "Drug metabolism", "setting": "[3]", "value": "1513 micromol/min/micromol protein"}, {"measurement": "IC50", "setting": "A549 [2]", "value": 870, "unit": "nM"}, {"measurement": "selectivity ratio", "setting": "in vitro", "value": 1.71}]}, {"smiles": "CCOC(=O)C1=C(C)NC(=S)NC1c1cccc(O)c1", "note": "(centres undefined) [MONASTROL]", "values": [{"measurement": "Drug metabolism", "setting": "[3]", "value": "Metabolite_Notdetected"}]}]}
